Results on one molecule are retold here after patent US12286453B2, “Methods of sequencing using nucleotides with 3′ acetal blocking group” (ILLUMINA CAMBRIDGE LIMITED, priority 2020, dated 2025).

The nature of this assay: Solution cleavage efficiency of palladium reagent formulations (HPLC kinetics). It counts as physicochemical. The conditions noted are these: 1 mM Pd species, 0.1 mM substrate, RT; 3 or 3.5 equivalents of THP vs 10 equivalents for [(Allyl)PdCl]2. On the procedure: The cleavage efficiency was determined by measuring the relative rate of cleavage of a 3′-AOM-nucleotide substrate. Briefly, to a 0.1 mM solution of 3′-AOM-nucleotide substrate in 100 mM buffer was added a stock solution of a palladium reagent to a final concentration of 1 mM in Pd species. The solution was incubated at RT and the reaction kinetic was monitored by taking aliquots from the reaction at set time points, quenching them with a 1:1 solution of EDTA/H2O2 (0.1:0.1 M) and analyzing them by HPLC for the formation of 3′-OH nucleotide and the disappearance of the 3′-AOM nucleotide substrate.

Take `[Cl-].[Cl-].[Cl][Pd][Cl].[Na+].[Na+]` [Na2PdCl4]: the “cleavage efficiency (relative rate of cleavage)” value is “comparable to that of [(Allyl)PdCl]2”.
